# Assay results published in the supplement of paper PMC8882468.
# ± gives the standard deviation of the averaged measurements.
# Test system: HCI-011.E2 (organoid from an ER-positive breast cancer xenograft)
# Assay: CTG-3D luminescence at 96 h relative to day-0 seeding control (ratio to day 0); higher = more growth / less cytotoxicity; PDxO 3D drug screen, 96 h, CTG-3D normalised to day-0 seeding control.
# Details: 12.5 pM
row,Structure (SMILES),CTG-3D luminescence at 96 h
1,COc1cc2c(Oc3ccc4[nH]c(C)cc4c3F)ncnc2cc1OCCCN1CCCC1 [cediranib],1.53 ± 0.09
2,CC(C)n1nc(-c2ccc3oc(N)nc3c2)c2c(N)ncnc21 [sapanisertib],1.81 ± 0.23
3,Cc1cc(Nc2ncnc3ccc(NC4=NC(C)(C)CO4)cc23)ccc1Oc1ccn2ncnc2c1 [tucatinib],1.7 ± 0.0054
4,C[C@H](NC(=O)CCC(F)(F)F)C(=O)N[C@@H]1C(=O)N(CCO)c2ncccc2-c2ccccc21 [crenigacestat],1.52 ± 0.18
5,C[C@]12CC[C@@H]3c4ccc(O)cc4C[C@@H](CCCCCCCCC[S+]([O-])CCCC(F)(F)C(F)(F)F)[C@H]3[C@@H]1CC[C@@H]2O (some centres not stated) [fulvestrant],1.73 ± 0.18
6,O=C(c1ccc(F)c(F)c1Nc1ccc(I)cc1F)N1CC(O)([C@@H]2CCCCN2)C1 [cobimetinib],1.67 ± 0.2
7,O=C(/C=C/c1cccnc1)NCCCCC1CCN(C(=O)c2ccccc2)CC1 [FK866],1.74 ± 0.37
8,CS(=O)(=O)c1ccc(C(=O)Nc2ccc(Cl)c(-c3ccccn3)c2)c(Cl)c1 [vismodegib],1.44 ± 0.087
9,C=CCn1c(=O)c2cnc(Nc3ccc(N4CCN(C)CC4)cc3)nc2n1-c1cccc(C(C)(C)O)n1 [adavosertib],1.73 ± 0.27

# Same assay, conditions: 12.5 pM; days in culture: 74
row,Structure (SMILES),CTG-3D luminescence at 96 h
1,COc1cc2c(Oc3ccc4[nH]c(C)cc4c3F)ncnc2cc1OCCCN1CCCC1 [cediranib],2.32
2,CC(C)n1nc(-c2ccc3oc(N)nc3c2)c2c(N)ncnc21 [sapanisertib],2.89
3,Cc1cc(Nc2ncnc3ccc(NC4=NC(C)(C)CO4)cc23)ccc1Oc1ccn2ncnc2c1 [tucatinib],2.22
4,C[C@H](NC(=O)CCC(F)(F)F)C(=O)N[C@@H]1C(=O)N(CCO)c2ncccc2-c2ccccc21 [crenigacestat],2.42
5,C[C@]12CC[C@@H]3c4ccc(O)cc4C[C@@H](CCCCCCCCC[S+]([O-])CCCC(F)(F)C(F)(F)F)[C@H]3[C@@H]1CC[C@@H]2O (some centres not stated) [fulvestrant],2.77
6,O=C(c1ccc(F)c(F)c1Nc1ccc(I)cc1F)N1CC(O)([C@@H]2CCCCN2)C1 [cobimetinib],2.68
7,O=C(/C=C/c1cccnc1)NCCCCC1CCN(C(=O)c2ccccc2)CC1 [FK866],2.62
8,CS(=O)(=O)c1ccc(C(=O)Nc2ccc(Cl)c(-c3ccccn3)c2)c(Cl)c1 [vismodegib],2.31
9,C=CCn1c(=O)c2cnc(Nc3ccc(N4CCN(C)CC4)cc3)nc2n1-c1cccc(C(C)(C)O)n1 [adavosertib],1.66

# Same assay, conditions: 0.00025 µM
row,Structure (SMILES),CTG-3D luminescence at 96 h
1,COc1cc2c(Oc3ccc4[nH]c(C)cc4c3F)ncnc2cc1OCCCN1CCCC1 [cediranib],1.52 ± 0.27
2,CC(C)n1nc(-c2ccc3oc(N)nc3c2)c2c(N)ncnc21 [sapanisertib],1.79 ± 0.046
3,Cc1cc(Nc2ncnc3ccc(NC4=NC(C)(C)CO4)cc23)ccc1Oc1ccn2ncnc2c1 [tucatinib],1.59 ± 0.043
4,C[C@H](NC(=O)CCC(F)(F)F)C(=O)N[C@@H]1C(=O)N(CCO)c2ncccc2-c2ccccc21 [crenigacestat],2.05 ± 0.4
5,C[C@]12CC[C@@H]3c4ccc(O)cc4C[C@@H](CCCCCCCCC[S+]([O-])CCCC(F)(F)C(F)(F)F)[C@H]3[C@@H]1CC[C@@H]2O (some centres not stated) [fulvestrant],1.6 ± 0.35
6,O=C(c1ccc(F)c(F)c1Nc1ccc(I)cc1F)N1CC(O)([C@@H]2CCCCN2)C1 [cobimetinib],1.69 ± 0.14
7,O=C(/C=C/c1cccnc1)NCCCCC1CCN(C(=O)c2ccccc2)CC1 [FK866],1.7 ± 0.019
8,CS(=O)(=O)c1ccc(C(=O)Nc2ccc(Cl)c(-c3ccccn3)c2)c(Cl)c1 [vismodegib],1.41 ± 0.3
9,C=CCn1c(=O)c2cnc(Nc3ccc(N4CCN(C)CC4)cc3)nc2n1-c1cccc(C(C)(C)O)n1 [adavosertib],1.67 ± 0.39

# Same assay, conditions: 0.00025 µM; days in culture: 74
row,Structure (SMILES),CTG-3D luminescence at 96 h
1,COc1cc2c(Oc3ccc4[nH]c(C)cc4c3F)ncnc2cc1OCCCN1CCCC1 [cediranib],2.91
2,CC(C)n1nc(-c2ccc3oc(N)nc3c2)c2c(N)ncnc21 [sapanisertib],2.86
3,Cc1cc(Nc2ncnc3ccc(NC4=NC(C)(C)CO4)cc23)ccc1Oc1ccn2ncnc2c1 [tucatinib],2.98
4,C[C@H](NC(=O)CCC(F)(F)F)C(=O)N[C@@H]1C(=O)N(CCO)c2ncccc2-c2ccccc21 [crenigacestat],2.44
5,C[C@]12CC[C@@H]3c4ccc(O)cc4C[C@@H](CCCCCCCCC[S+]([O-])CCCC(F)(F)C(F)(F)F)[C@H]3[C@@H]1CC[C@@H]2O (some centres not stated) [fulvestrant],2.62
6,O=C(c1ccc(F)c(F)c1Nc1ccc(I)cc1F)N1CC(O)([C@@H]2CCCCN2)C1 [cobimetinib],2.66
7,O=C(/C=C/c1cccnc1)NCCCCC1CCN(C(=O)c2ccccc2)CC1 [FK866],2.62
8,CS(=O)(=O)c1ccc(C(=O)Nc2ccc(Cl)c(-c3ccccn3)c2)c(Cl)c1 [vismodegib],1.93
9,C=CCn1c(=O)c2cnc(Nc3ccc(N4CCN(C)CC4)cc3)nc2n1-c1cccc(C(C)(C)O)n1 [adavosertib],2.29

# Same assay, conditions: 0.005 µM
row,Structure (SMILES),CTG-3D luminescence at 96 h
1,COc1cc2c(Oc3ccc4[nH]c(C)cc4c3F)ncnc2cc1OCCCN1CCCC1 [cediranib],1.45 ± 0.36
2,CC(C)n1nc(-c2ccc3oc(N)nc3c2)c2c(N)ncnc21 [sapanisertib],1.06 ± 0.06
3,Cc1cc(Nc2ncnc3ccc(NC4=NC(C)(C)CO4)cc23)ccc1Oc1ccn2ncnc2c1 [tucatinib],1.4 ± 0.23
4,C[C@H](NC(=O)CCC(F)(F)F)C(=O)N[C@@H]1C(=O)N(CCO)c2ncccc2-c2ccccc21 [crenigacestat],1.54 ± 0.61
5,C[C@]12CC[C@@H]3c4ccc(O)cc4C[C@@H](CCCCCCCCC[S+]([O-])CCCC(F)(F)C(F)(F)F)[C@H]3[C@@H]1CC[C@@H]2O (some centres not stated) [fulvestrant],1.24 ± 0.45
6,O=C(c1ccc(F)c(F)c1Nc1ccc(I)cc1F)N1CC(O)([C@@H]2CCCCN2)C1 [cobimetinib],1.54 ± 0.1
7,O=C(/C=C/c1cccnc1)NCCCCC1CCN(C(=O)c2ccccc2)CC1 [FK866],1.37 ± 0.047
8,CS(=O)(=O)c1ccc(C(=O)Nc2ccc(Cl)c(-c3ccccn3)c2)c(Cl)c1 [vismodegib],1.58 ± 0.23
9,C=CCn1c(=O)c2cnc(Nc3ccc(N4CCN(C)CC4)cc3)nc2n1-c1cccc(C(C)(C)O)n1 [adavosertib],1.49 ± 0.12

# Same assay, conditions: 0.005 µM; days in culture: 74
row,Structure (SMILES),CTG-3D luminescence at 96 h
1,COc1cc2c(Oc3ccc4[nH]c(C)cc4c3F)ncnc2cc1OCCCN1CCCC1 [cediranib],2.13
2,CC(C)n1nc(-c2ccc3oc(N)nc3c2)c2c(N)ncnc21 [sapanisertib],1.28
3,Cc1cc(Nc2ncnc3ccc(NC4=NC(C)(C)CO4)cc23)ccc1Oc1ccn2ncnc2c1 [tucatinib],1.74
4,C[C@H](NC(=O)CCC(F)(F)F)C(=O)N[C@@H]1C(=O)N(CCO)c2ncccc2-c2ccccc21 [crenigacestat],1.96
5,C[C@]12CC[C@@H]3c4ccc(O)cc4C[C@@H](CCCCCCCCC[S+]([O-])CCCC(F)(F)C(F)(F)F)[C@H]3[C@@H]1CC[C@@H]2O (some centres not stated) [fulvestrant],1.87
6,O=C(c1ccc(F)c(F)c1Nc1ccc(I)cc1F)N1CC(O)([C@@H]2CCCCN2)C1 [cobimetinib],2.33
7,O=C(/C=C/c1cccnc1)NCCCCC1CCN(C(=O)c2ccccc2)CC1 [FK866],2.29
8,CS(=O)(=O)c1ccc(C(=O)Nc2ccc(Cl)c(-c3ccccn3)c2)c(Cl)c1 [vismodegib],1.98
9,C=CCn1c(=O)c2cnc(Nc3ccc(N4CCN(C)CC4)cc3)nc2n1-c1cccc(C(C)(C)O)n1 [adavosertib],2.11

# Same assay, conditions: 0.1 µM
row,Structure (SMILES),CTG-3D luminescence at 96 h
1,COc1cc2c(Oc3ccc4[nH]c(C)cc4c3F)ncnc2cc1OCCCN1CCCC1 [cediranib],2.05 ± 0.66
2,CC(C)n1nc(-c2ccc3oc(N)nc3c2)c2c(N)ncnc21 [sapanisertib],0.362 ± 0.027
3,Cc1cc(Nc2ncnc3ccc(NC4=NC(C)(C)CO4)cc23)ccc1Oc1ccn2ncnc2c1 [tucatinib],1.87 ± 0.22
4,C[C@H](NC(=O)CCC(F)(F)F)C(=O)N[C@@H]1C(=O)N(CCO)c2ncccc2-c2ccccc21 [crenigacestat],1.98 ± 0.64
5,C[C@]12CC[C@@H]3c4ccc(O)cc4C[C@@H](CCCCCCCCC[S+]([O-])CCCC(F)(F)C(F)(F)F)[C@H]3[C@@H]1CC[C@@H]2O (some centres not stated) [fulvestrant],1.51 ± 0.47
6,O=C(c1ccc(F)c(F)c1Nc1ccc(I)cc1F)N1CC(O)([C@@H]2CCCCN2)C1 [cobimetinib],1.81 ± 0.46
7,O=C(/C=C/c1cccnc1)NCCCCC1CCN(C(=O)c2ccccc2)CC1 [FK866],1.62 ± 0.38
8,CS(=O)(=O)c1ccc(C(=O)Nc2ccc(Cl)c(-c3ccccn3)c2)c(Cl)c1 [vismodegib],1.72 ± 0.5
9,C=CCn1c(=O)c2cnc(Nc3ccc(N4CCN(C)CC4)cc3)nc2n1-c1cccc(C(C)(C)O)n1 [adavosertib],1.89 ± 0.29

# Same assay, conditions: 0.1 µM; days in culture: 74
row,Structure (SMILES),CTG-3D luminescence at 96 h
1,COc1cc2c(Oc3ccc4[nH]c(C)cc4c3F)ncnc2cc1OCCCN1CCCC1 [cediranib],2.41
2,CC(C)n1nc(-c2ccc3oc(N)nc3c2)c2c(N)ncnc21 [sapanisertib],0.283
3,Cc1cc(Nc2ncnc3ccc(NC4=NC(C)(C)CO4)cc23)ccc1Oc1ccn2ncnc2c1 [tucatinib],2.19
4,C[C@H](NC(=O)CCC(F)(F)F)C(=O)N[C@@H]1C(=O)N(CCO)c2ncccc2-c2ccccc21 [crenigacestat],2.06
5,C[C@]12CC[C@@H]3c4ccc(O)cc4C[C@@H](CCCCCCCCC[S+]([O-])CCCC(F)(F)C(F)(F)F)[C@H]3[C@@H]1CC[C@@H]2O (some centres not stated) [fulvestrant],2.1
6,O=C(c1ccc(F)c(F)c1Nc1ccc(I)cc1F)N1CC(O)([C@@H]2CCCCN2)C1 [cobimetinib],1.91
7,O=C(/C=C/c1cccnc1)NCCCCC1CCN(C(=O)c2ccccc2)CC1 [FK866],1.99
8,CS(=O)(=O)c1ccc(C(=O)Nc2ccc(Cl)c(-c3ccccn3)c2)c(Cl)c1 [vismodegib],2.31
9,C=CCn1c(=O)c2cnc(Nc3ccc(N4CCN(C)CC4)cc3)nc2n1-c1cccc(C(C)(C)O)n1 [adavosertib],2.08
